In patent US6608082B1, “Treatment of erectile dysfunction using isoquinoline compound melanocortin receptor ligands” (Lion Bioscience AG, priority 1998, dated 2003):
Read-outs that look alike come from different tables or passages of the source. Each block holds one molecule with its values, some of them ahead of it.

Experiments:
[1] = molecular target: T1, MCR-1 (Homo sapiens, UniProt Q01726); experiment: Melanocortin receptor binding assay, competition with 125I-HP 467, HEK 293 cells expressing hMCR-1; conditions: for IC50: read-out: MC-1 IC50
T1 construct: expressed in transfected cells; host or cells: HEK 293
Summary of the method: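 Intact-cell competition binding, 2.5 hr at 37 °C, in PBS/10% calf serum/1 mM CaCl2; hMCR-4 cells at 4×10^3 per tube, hMCR-1 cells at 2×10^4 per tube. Filtration on BSA/CaCl2-soaked GF/B, cold 50 mM Tris pH 7.4 washes, scintillation count.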

[2] = molecular target: T2, MCR-4 (Homo sapiens, UniProt P32245); experiment: Melanocortin receptor binding assay, competition with 125I-HP 467, HEK 293 cells expressing hMCR-4; conditions: for IC50: read-out: MC-4 IC50
T2 construct: expressed in transfected cells; host or cells: HEK 293
Protocol: All cell culture media and reagents were obtained from GibcoBRL (Gaithersburg Md.), except for COSMIC CALF SERUM (HyClone; Logan Utah).
Cells were suspended in PBS, 10% COSMIC CALF SERUM and 1 mM CaCl2. Cell suspensions were prepared at a density of 2×10^4 cells/ml for HEK 293 cells expressing hMCR-3, hMCR-4 or hMCR-5, and 1×10^5 cells/ml for HEK 293 cells expressing hMCR-1. Suspensions were placed in a water bath and allowed to warm to 37° C. for 1 hr.
Binding assays were performed in a total volume of 250 μl for HEK 293 cells. […] To each tube was added 4×10^3 HEK 293 cells expressing hMCR-3, hMCR-4 or hMCR-5, or 2×10^4 cells expressing hMCR-1. Assays were incubated for 2.5 hr at 37° C.
GF/B filter plates were prepared by soaking for at least one hour in 5 mg/ml BSA and 10 mM CaCl2. Assays were filtered using a Brandel 96-well cell harvester (Brandel Inc.; Gaithersburg, Md.). The filters were washed four times with cold 50 mM Tris, pH 7.4, the filter plates were dehydrated for 2 hr and 35 μl of MICROSCINT was added to each well. Filter plates were counted using a Packard Topcount (Packard Instrument Co.) and data analyzed using GraphPad PRISM v2.0 (GraphPad Software Inc.; San Diego Calif.) and Microsoft EXCEL v5.0a (Microsoft Corp.; Redmond Wash.).
To assay isoquinoline compounds, binding assays were performed in duplicate in a 96 well format. […] A 0.2 ml aliquot of suspended cells was added to each well to give the cell numbers indicate above, and the cells were incubated at 37° C. for 2.5 hr. Cells were harvested on GF/B filter plates as described above and counted.

[3] = competition with 125I-HP 467, HEK 293 cells expressing MCR-1
[4] = competition with 125I-HP 467, HEK 293 cells expressing MCR-4
[5] = inhibition of binding of 125I-HP 467, HEK 293 cells expressing MCR-1, TRG 2414 library
[6] = inhibition of binding of 125I-HP 467, HEK 293 cells expressing MCR-4, TRG 2414 library
[7] = TRG 2406 and TRG 2407 libraries, inhibition of binding of 125I-HP 467
[8] = inhibition of binding of 125I-HP 467, HEK 293 cells expressing MCR-1
[9] = inhibition of binding of 125I-HP 467, HEK 293 cells expressing MCR-4
[10] = TRG 2408 and TRG 2409 libraries, inhibition of 125I-HP 467 binding

T1 sequence (Q01726 whole entry): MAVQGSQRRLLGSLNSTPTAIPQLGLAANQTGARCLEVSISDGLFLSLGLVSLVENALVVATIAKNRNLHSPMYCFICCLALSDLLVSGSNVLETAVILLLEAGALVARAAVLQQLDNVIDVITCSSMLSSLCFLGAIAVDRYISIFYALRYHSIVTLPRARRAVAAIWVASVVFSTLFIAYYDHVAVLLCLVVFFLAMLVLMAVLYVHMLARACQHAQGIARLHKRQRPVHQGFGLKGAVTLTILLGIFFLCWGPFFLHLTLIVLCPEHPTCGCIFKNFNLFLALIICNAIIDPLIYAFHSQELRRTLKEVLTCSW
T2 sequence (P32245 whole entry): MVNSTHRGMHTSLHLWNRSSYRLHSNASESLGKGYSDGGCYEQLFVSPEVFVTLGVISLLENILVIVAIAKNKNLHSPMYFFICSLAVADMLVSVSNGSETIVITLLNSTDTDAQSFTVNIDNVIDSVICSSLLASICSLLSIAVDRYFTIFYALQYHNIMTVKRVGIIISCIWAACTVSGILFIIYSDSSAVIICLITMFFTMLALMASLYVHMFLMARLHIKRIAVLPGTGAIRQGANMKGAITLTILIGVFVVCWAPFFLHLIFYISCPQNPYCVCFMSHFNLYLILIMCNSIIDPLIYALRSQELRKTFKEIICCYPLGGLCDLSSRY

Compound: NCC(N)CCCCN1Cc2ccccc2C(CNCc2ccccc2C(F)(F)F)C1c1ccc(Oc2ccccc2)cc1 (centres unmarked) [TRG 2414-121]
IC50 [1, 5]: 8140 nM | IC50 [2, 6]: 27800 nM

Compound: CNC(CN)CN1Cc2ccccc2C(CNCc2ccccc2O)C1c1cccc(Oc2ccc(OC)cc2)c1 (centres unmarked) [TRG 2406-6]
IC50 [1, 7]: 3170 nM | IC50 [2, 7]: 1360 nM

Compound: NCC(N)CCCCN1Cc2ccccc2C(CNC2CCCCCC2)C1c1ccc(Cl)cc1Cl (mixture of isomers) [TRG 2414-33]
IC50 [1, 5]: 1900 nM | IC50 [2, 6]: 720 nM

Compound: CCNC(CN)CCCCN1Cc2ccccc2C(CN)C1c1ccc(CC)cc1 (centres unmarked) [TRG 2415-19]
IC50 [1, 8]: 1460 nM | IC50 [2, 9]: 2040 nM

Compound: CCCOc1ccc(C2C(CNCCc3cccc(Cl)c3)c3ccccc3CN2CCCCC(CN)NCC(C)c2ccc(CC(C)C)cc2)cc1 (centres unmarked) [TRG 2414-176]
IC50 [1, 5]: 21900 nM | MC-4 IC50 [2, 6]: no fit

Compound: NCC(N)CCCN1Cc2ccccc2C(CNC2CCCCC2)C1c1ccc(Cl)cc1Cl (centres unmarked) [TRG 2408-71]
IC50 [1, 10]: 1190 nM | IC50 [2, 10]: 3030 nM

Compound: CCOc1ccc(C2C(CO)c3ccccc3CN2CCCC(CN)NCCC2CCCCC2)cc1 (centres unmarked) [TRG 2415-3]
IC50 [1, 8]: 1440 nM | IC50 [2, 9]: 2380 nM

Compound: CNC(CN)CCCCN1Cc2ccccc2C(CN(C)C2CCCCC2)C1c1ccc(Cl)cc1Cl (centres unmarked) [TRG 2407-30]
IC50 [1, 7]: 3150 nM | IC50 [2, 7]: 2100 nM

Compound: CCCCNc1ccc(C2C(CO)c3ccccc3CN2CCCC(CN)NCCC2CCCCC2)cc1 (centres unmarked) [TRG 2415-1]
IC50 [1, 8]: 1930 nM | IC50 [2, 9]: 5040 nM

Compound: CCN(CC)CC1c2ccccc2CN(CCCCC(CN)NC)C1c1ccc(Cl)cc1Cl (centres unmarked) [TRG 2407-35]
IC50 [1, 7]: 6520 nM | IC50 [2, 7]: 3410 nM

Compound: NCC(N)CCCCN1Cc2ccccc2C(CNCc2ccccc2)C1c1ccc(Cl)cc1Cl (centres unmarked) [TRG 2414-29]
IC50 [1, 5]: 5660 nM | IC50 [2, 6]: 4400 nM

Compound: NCC(N)CCCCN1Cc2ccccc2C(CNC2CCCCC2)C1c1ccc(Cl)cc1Cl (mixture of isomers) [TRG 2414-37]
IC50 [1, 5]: 992 nM | IC50 [2, 6]: 1300 nM

Compound: Cc1ccc(CNC(CN)CCCCN2Cc3ccccc3C(CNCCc3ccc(Oc4ccccc4)cc3)C2c2cc(C(F)(F)F)cc(C(F)(F)F)c2)cc1 (centres unmarked) [TRG 2421-27]
IC50 [1, 8]: 7260 nM | IC50 [2, 9]: 9260 nM

Compound: CCNc1ccc(C2C(CNC3CCCCC3)c3ccccc3CN2CCCCC(CN)NCCc2ccc(OC)cc2)cc1 (centres unmarked) [TRG 2411-53]
IC50 [1, 3]: 280 nM | IC50 [2, 4]: 1650 nM

Other lines, results leading:

IC50 [1, 3]: 90 nM | IC50 [2, 4]: 1330 nM
Compound: CCCCNC(CN)CCCCN1Cc2ccccc2C(CNCCc2ccccc2)C1c1ccc(NCC)cc1 (centres unmarked) [TRG 2411-38]

IC50 [1, 3]: 300 nM | IC50 [2, 4]: 1330 nM
Compound: CNC(CNC(CN)CCCCN1Cc2ccccc2C(CN)C1c1ccc(-c2ccccc2)cc1)Cc1ccccc1 (centres unmarked) [TRG 2411-30]

IC50 [1, 5]: 6550 nM | IC50 [2, 6]: 8210 nM
Compound: COc1ccc(CCNCC2c3ccccc3CN(CCCCC(CN)NCc3ccccc3)C2c2cccc(Oc3ccccc3)c2)cc1 (centres unmarked) [TRG 2414-107]

MC-1 IC50 [1, 5]: no fit | IC50 [2, 6]: 46200 nM
Compound: COc1ccc(CNCC2c3ccccc3CN(CCCCC(CN)NCC(C)c3ccc(CC(C)C)cc3)C2c2cccc(Oc3ccccc3)c2)cc1 (centres unmarked) [TRG 2414-104]

IC50 [1, 7]: 850 nM | IC50 [2, 7]: 260 nM
Compound: CNC(CN)CCCCN1Cc2ccccc2C(CNCc2ccccc2O)C1c1cccc(Oc2ccccc2)c1 (centres unmarked) [TRG 2406-10]

IC50 [1, 3]: 1320 nM | IC50 [2, 4]: 1490 nM
Compound: NCC(CCCN1Cc2ccccc2C(CNCCc2ccccc2)C1c1ccc(-c2ccccc2)cc1)NCc1ccccc1 (centres unmarked) [TRG 2411-126]

IC50 [1, 3]: 240 nM | IC50 [2, 4]: 1820 nM
Compound: CCNc1ccc(C2C(CN)c3ccccc3CN2CCCCC(CN)NCCc2ccccc2)cc1 (centres unmarked) [TRG 2411-63]

IC50 ([1]; TRG 2414 library, inhibition of binding of 125I-HP 467, HEK 293 cells expressing MCR-1): 5160 nM | IC50 ([2]; TRG 2414 library, inhibition of binding of 125I-HP 467, HEK 293 cells expressing MCR-4): 3420 nM
Compound: COc1ccc(CCNCC2c3ccccc3CN(CCCCC(CN)NCCc3ccccc3)C2c2ccccc2Br)cc1 (centres unmarked) [Cmpd 226]
